Laboratory results published in patent publication US20240415819A1, “MACROCYCLIC COMPOUNDS AS PROTEASOME SUBUNIT BETA TYPE-5 INHIBITORS” (Lead Discovery Center GmbH, priority 2021, published 2024).

Legend:
[1] = target: T1, β5 subunit of the human immunoproteasome (IPS) (Homo sapiens, UniProt P28062); assay: β5 inhibition assay, human immunoproteasome (Suc-LLVY-AMC); assay type: biochemical; settings: IC50 class, Suc-LLVY-AMC substrate
T1 construct: purchased Boston Biochem E-370
In short: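 β5 activity is read as liberated AMC fluorescence (355/460 nm) after 4 h dark reaction at RT with 22.6 μM Suc-LLVY-AMC, stopped by 1 μM bortezomib. Beforehand, 1 nM human IPS and compound sat 10 min at RT in HEPES pH 7.5 buffer containing NaCl, 0.02% SDS and DTT.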

[2] = tested on: A549 (human lung carcinoma cell line); assay: Glo assay of A549 cells (Table 3; ProteasomeGlo plating scheme); assay type: cell-based; settings: Homo sapiens; A549 cells; read-out: PGLo A549
In short: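 Compound treatment lasts 105 minutes at 37° C. under 5% CO2. Suc-LLVY-Glo substrate premixed with detection reagent (60 min at room temperature) is then added directly to the cells, and luminescence after 10-15 min in the dark gives the IC50 in nM.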

SMILES: CO[C@@H](C(=O)N[C@H]1CC(=O)N2CCCC(CCOc3ccc(C)c(c3)CNC(=O)[C@H](CCc3ccccc3)NC1=O)C2)c1ccccc1 (stereo partly drawn) [Compound 86, (2R)-2-methoxy-N-((9S,12S)-5^4-methyl-8,11,14-trioxo-9-phenethyl-4-oxa-7,10-diaza-1(3,1)-piperidina-5(1,3)-benzenacyclotetradecaphane-12-yl)-2-phenylacetamide]
- IC50 [1]: < 100 nM
- IC50 [2]: < 100 nM

SMILES: Cc1ccc2cc1CNC(=O)[C@H](CCc1ccccc1)NC(=O)[C@@H](NC(=O)c1cc3cc(C(F)(F)F)ccc3n1C)CC(=O)N1CCCC(CCO2)C1 (stereo partly drawn) [Compound 87, 1-methyl-N-((9S,12S)-5^4-methyl-8,11,14-trioxo-9-phenethyl-4-oxa-7,10-diaza-1(3,1)-piperidina-5(1,3)-benzenacyclotetradecaphane-12-yl)-5-(trifluoromethyl)-1H-indole-2-carboxamide]
- IC50 [1]: < 100 nM
- IC50 [2]: < 100 nM

SMILES: Cc1ccc2cc1CNC(=O)[C@H](CCc1ccccc1)NC(=O)[C@@H](NC(=O)CN1CCOCC1)CC(=O)N1CCCC(CCO2)C1 (stereo partly drawn) [Compound 88, N-((9S,12S)-5^4-methyl-8,11,14-trioxo-9-phenethyl-4-oxa-7,10-diaza-1(3,1)-piperidina-5(1,3)-benzenacyclotetradecaphane-12-yl)-2-morpholinoacetamide]
- IC50 [1]: < 100 nM
- IC50 [2]: < 100 nM

SMILES: Cc1ccc2cc1CNC(=O)[C@H](CCc1ccccc1)NC(=O)[C@@H](NC(=O)CN1CCCC1)CC(=O)N1CCCC(CCO2)C1 (stereo partly drawn) [Compound 89, N-((9S,12S)-5^4-methyl-8,11,14-trioxo-9-phenethyl-4-oxa-7,10-diaza-1(3,1)-piperidina-5(1,3)-benzenacyclotetradecaphane-12-yl)-2-(pyrrolidin-1-yl)acetamide]
- IC50 [1]: < 100 nM
- IC50 [2]: < 100 nM

SMILES: Cc1ccc2cc1CNC(=O)C(c1cnn(C)c1)NC(=O)CCC(=O)N1CCCC(CCO2)C1 (centres unmarked) [Compound 116, 5^4-methyl-9-(1-methyl-1H-pyrazol-4-yl)-4-oxa-7,10-diaza-1(3,1)-piperidina-5(1,3)-benzenacyclotetradecaphane-8,11,14-trione]
- IC50 [1]: 100 to 500 nM
- IC50 [2]: > 5000 nM

SMILES: Cc1cc2cc(c1C)CNC(=O)[C@H](Cc1c[nH]c3ccccc13)NC(=O)CCC(=O)N1CCCC(CCO2)C1 (stereo partly drawn) [Compound 120, (9S)-9-((1H-indol-3-yl)methyl)-5^4,5^5-dimethyl-4-oxa-7,10-diaza-1(3,1)-piperidina-5(1,3)-benzenacyclotetradecaphane-8,11,14-trione]
- IC50 [1]: < 100 nM
- IC50 [2]: 1000 to 5000 nM

SMILES: Cc1ccc2cc1CNC(=O)[C@H](CCc1ccccc1)NC(=O)[C@@H](NC(=O)CN1CCNCC1)CC(=O)N1CCCC(CCO2)C1 (stereo partly drawn) [Compound 126, N-((9S,12S)-5^4-methyl-8,11,14-trioxo-9-phenethyl-4-oxa-7,10-diaza-1(3,1)-piperidina-5(1,3)-benzenacyclotetradecaphane-12-yl)-2-(piperazin-1-yl)acetamide]
- IC50 [1]: < 100 nM
- IC50 [2]: < 100 nM

SMILES: Cc1ccc2cc1CNC(=O)[C@H](CCc1ccccc1)NC(=O)[C@@H](NC(=O)Cc1cccc(N)c1)CC(=O)N1CCCC(CCO2)C1 (stereo partly drawn) [Compound 127, 2-(3-aminophenyl)-N-((9S,12S)-5^4-methyl-8,11,14-trioxo-9-phenethyl-4-oxa-7,10-diaza-1(3,1)-piperidina-5(1,3)-benzenacyclotetradecaphane-12-yl)acetamide]
- IC50 [1]: < 100 nM
- IC50 [2]: < 100 nM

SMILES: Cc1ccc2cc1CNC(=O)[C@H](CCc1ccccc1)NC(=O)[C@@H](NC(=O)Cc1ccc(N)cc1)CC(=O)N1CCCC(CCO2)C1 (stereo partly drawn) [Compound 128, 2-(4-aminophenyl)-N-((9S,12S)-5^4-methyl-8,11,14-trioxo-9-phenethyl-4-oxa-7,10-diaza-1(3,1)-piperidina-5(1,3)-benzenacyclotetradecaphane-12-yl)acetamide]
- IC50 [1]: < 100 nM
- IC50 [2]: < 100 nM

SMILES: CNCC(=O)N[C@H]1CC(=O)N2CCCC(CCOc3ccc(C)c(c3)CNC(=O)[C@H](CCc3ccccc3)NC1=O)C2 (stereo partly drawn) [Compound 129, N-((9S,12S)-5^4-methyl-8,11,14-trioxo-9-phenethyl-4-oxa-7,10-diaza-1(3,1)-piperidina-5(1,3)-benzenacyclotetradecaphane-12-yl)-2-(methylamino)acetamide]
- IC50 [1]: < 100 nM
- IC50 [2]: < 100 nM

SMILES: CNCCOCC(=O)N[C@H]1CC(=O)N2CCCC(CCOc3ccc(C)c(c3)CNC(=O)[C@H](CCc3ccccc3)NC1=O)C2 (stereo partly drawn) [Compound 130, N-((9S,12S)-5^4-methyl-8,11,14-trioxo-9-phenethyl-4-oxa-7,10-diaza-1(3,1)-piperidina-5(1,3)-benzenacyclotetradecaphane-12-yl)-2-(2-(methylamino)ethoxy)acetamide]
- IC50 [1]: < 100 nM
- IC50 [2]: 100 to 500 nM

SMILES: Cc1ccc2cc1CNC(=O)[C@H](CCc1ccccc1)NC(=O)[C@@H](NC(=O)C1(F)CCNCC1)CC(=O)N1CCCC(CCO2)C1 (stereo partly drawn) [Compound 134, 4-fluoro-N-((9S,12S)-5^4-methyl-8,11,14-trioxo-9-phenethyl-4-oxa-7,10-diaza-1(3,1)-piperidina-5(1,3)-benzenacyclotetradecaphane-12-yl)piperidine-4-carboxamide]
- IC50 [1]: < 100 nM
- IC50 [2]: < 100 nM

SMILES: Cc1ccc2cc1CNC(=O)[C@H](CCc1ccccc1)NC(=O)[C@@H](NC(=O)C1CC(F)(F)CN1)CC(=O)N1CCCC(CCO2)C1 (stereo partly drawn) [Compound 135, (2S)-4,4-difluoro-N-((9S,12S)-5^4-methyl-8,11,14-trioxo-9-phenethyl-4-oxa-7,10-diaza-1(3,1)-piperidina-5(1,3)-benzenacyclotetradecaphane-12-yl)pyrrolidine-2-carboxamide]
- IC50 [1]: < 100 nM
- IC50 [2]: < 100 nM

SMILES: Cc1ccc2cc1CNC(=O)[C@H](CCc1ccccc1)NC(=O)[C@@H](NC(=O)C1(C)CCNCC1)CC(=O)N1CCCC(CCO2)C1 (stereo partly drawn) [Compound 136, 4-methyl-N-((9S,12S)-5^4-methyl-8,11,14-trioxo-9-phenethyl-4-oxa-7,10-diaza-1(3,1)-piperidina-5(1,3)-benzenacyclotetradecaphane-12-yl)piperidine-4-carboxamide]
- IC50 [1]: < 100 nM
- IC50 [2]: < 100 nM

SMILES: CC(=O)N[C@H]1CCC(=O)N2CCOC(CCOc3ccc(C)c(c3)CNC(=O)[C@H](CCc3ccccc3)NC1=O)C2 (stereo partly drawn) [Compound 143, N-((9S,12S)-5^4-methyl-8,11,15-trioxo-9-phenethyl-4-oxa-7,10-diaza-1(2,4)-morpholina-5(1,3)-benzenacyclopentadecaphane-12-yl)acetamide]
- IC50 [1]: < 100 nM
- IC50 [2]: 100 to 500 nM

SMILES: CC(=O)N[C@H]1CCC(=O)N2CCCC(C2)Oc2ccc(C)c(c2)CNC(=O)[C@H](CCc2ccccc2)NC1=O (stereo partly drawn) [Compound 148, N-((7S,10S)-3^4-methyl-6,9,13-trioxo-7-phenethyl-2-oxa-5,8-diaza-1(3,1)-piperidina-3(1,3)-benzenacyclotridecaphane-10-yl)acetamide]
- IC50 [1]: < 100 nM
- IC50 [2]: > 5000 nM

SMILES: Cc1ccc2cc1CNC(=O)[C@H](CCc1ccccc1)NC(=O)[C@@H](NC(=O)C1CCNCC1(F)F)CC(=O)N1CCCC(CCO2)C1 (stereo partly drawn) [Compound 152, 3,3-difluoro-N-((9S,12S)-5^4-methyl-8,11,14-trioxo-9-phenethyl-4-oxa-7,10-diaza-1(3,1)-piperidina-5(1,3)-benzenacyclotetradecaphane-12-yl)piperidine-4-carboxamide]
- IC50 [1]: < 100 nM
- IC50 [2]: < 100 nM

SMILES: Cc1ccc2cc1CNC(=O)[C@H](CCc1ccccc1)NC(=O)[C@@H](NC(=O)C1CCC(C(F)(F)F)N1)CC(=O)N1CCCC(CCO2)C1 (stereo partly drawn) [Compound 157, N-((9S,12S)-5^4-methyl-8,11,14-trioxo-9-phenethyl-4-oxa-7,10-diaza-1(3,1)-piperidina-5(1,3)-benzenacyclotetradecaphane-12-yl)-5-(trifluoromethyl)pyrrolidine-2-carboxamide]
- IC50 [1]: < 100 nM
- IC50 [2]: 100 to 500 nM

SMILES: Cc1ccc2cc1CNC(=O)[C@H](CCc1ccccc1)NC(=O)[C@@H](NC(=O)C1(N)COC1)CC(=O)N1CCCC(CCO2)C1 (stereo partly drawn) [Compound 158, 3-amino-N-((9S,12S)-5^4-methyl-8,11,14-trioxo-9-phenethyl-4-oxa-7,10-diaza-1(3,1)-piperidina-5(1,3)-benzenacyclotetradecaphane-12-yl)oxetane-3-carboxamide]
- IC50 [1]: < 100 nM
- IC50 [2]: < 100 nM

SMILES: Cc1ccc2cc1CNC(=O)[C@H](CCc1ccccc1)NC(=O)[C@@H](NC(=O)C1(N)CCOC1)CC(=O)N1CCCC(CCO2)C1 (stereo partly drawn) [Compound 159, 3-amino-N-((9S,12S)-5^4-methyl-8,11,14-trioxo-9-phenethyl-4-oxa-7,10-diaza-1(3,1)-piperidina-5(1,3)-benzenacyclotetradecaphane-12-yl)tetrahydrofuran-3-carboxamide]
- IC50 [1]: < 100 nM
- IC50 [2]: 100 to 500 nM

SMILES: Cc1ccc2cc1CNC(=O)[C@H](CCc1ccccc1)NC(=O)[C@@H](NC(=O)C1CCN1)CC(=O)N1CCCC(CCO2)C1 (stereo partly drawn) [Compound 160, (2R)-N-((9S,12S)-5^4-methyl-8,11,14-trioxo-9-phenethyl-4-oxa-7,10-diaza-1(3,1)-piperidina-5(1,3)-benzenacyclotetradecaphane-12-yl)azetidine-2-carboxamide]
- IC50 [1]: < 100 nM
- IC50 [2]: 100 to 500 nM

SMILES: CC(=O)N[C@H]1CCC(=O)NCCCCOc2ccc(C)c(c2)CNC(=O)[C@H](CCc2ccccc2)NC1=O [Compound 171, N-((11S,14S)-1^4-methyl-8,12,15-trioxo-14-phenethyl-2-oxa-7,13,16-triaza-1(1,3)-benzenacycloheptadecaphane-11-yl)acetamide]
- IC50 [1]: < 100 nM
- IC50 [2]: 500 to 1000 nM
